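Method: 48-hour compound exposure of cells in 96-well plates, five concentrations, linear interpolation of endpoints. TGI denotes the concentration required for complete inhibition of growth.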
Assays:
Experiment in all cases: NCI-60 cell line screen, 48 h
A549 NSCLC = tested on: A549 NSCLC
PC-3 prostate = tested on: PC-3 prostate
A498 renal = tested on: A498 renal
CCRF-CEM leukemia = tested on: CCRF-CEM leukemia
SN12C renal = tested on: SN12C renal
ACHN renal = tested on: ACHN renal
KM12 colon = tested on: KM12 colon
NCI/ADR-RES ovarian = tested on: NCI/ADR-RES ovarian
K-562 leukemia = tested on: K-562 leukemia
SW-620 colon = tested on: SW-620 colon
NCI-H23 lung = tested on: NCI-H23 lung
SK-MEL-2 melanoma = tested on: SK-MEL-2 melanoma
MOLT-4 leukemia = tested on: MOLT-4 leukemia
SF-539 CNS = tested on: SF-539 CNS
NCI-H226 lung = tested on: NCI-H226 lung
LOX IMVI melanoma = tested on: LOX IMVI melanoma
UACC-257 melanoma = tested on: UACC-257 melanoma

Measured: TGI

CC1=NN(c2nc(N)nc(C(C)Sc3cc(Cl)c(C)cc3S(N)(=O)=O)n2)C(C)(C)C1 (configuration not stated)
> 10 µM: A549 NSCLC | PC-3 prostate | A498 renal | CCRF-CEM leukemia | SN12C renal | ACHN renal | KM12 colon | NCI/ADR-RES ovarian | K-562 leukemia | SW-620 colon | NCI-H23 lung | SK-MEL-2 melanoma | MOLT-4 leukemia | SF-539 CNS | NCI-H226 lung | LOX IMVI melanoma | UACC-257 melanoma

Oc1ccc2ccccc2c1-c1c(Nc2ccccc2)ccc2ccccc12
36.3 µM: SK-MEL-2 melanoma
> 51.3 µM: NCI/ADR-RES ovarian
44.7 µM: CCRF-CEM leukemia
36.1 µM: NCI-H226 lung
46.4 µM: MOLT-4 leukemia
38.9 µM: A549 NSCLC
> 61.2 µM: SN12C renal
36.8 µM: PC-3 prostate
40.3 µM: UACC-257 melanoma
48.5 µM: LOX IMVI melanoma
26.8 µM: SW-620 colon
30 µM: NCI-H23 lung
36.2 µM: A498 renal
37.3 µM: KM12 colon
29.7 µM: SF-539 CNS
41 µM: K-562 leukemia
38.8 µM: ACHN renal

O=c1c2c(sc3ccccc13)NCN(CCc1ccccc1)C2
80.2 µM: MOLT-4 leukemia
> 100 µM: A549 NSCLC | PC-3 prostate | A498 renal | CCRF-CEM leukemia | SN12C renal | ACHN renal | KM12 colon | SW-620 colon | NCI-H23 lung | SF-539 CNS | NCI-H226 lung | LOX IMVI melanoma | UACC-257 melanoma
75.4 µM: SK-MEL-2 melanoma
99 µM: NCI/ADR-RES ovarian
40.8 µM: K-562 leukemia

CSC(=NC1CC(n2cc(C)c(=O)[nH]c2=O)OC1CO)NC#N (configuration not stated)
> 100 µM: A549 NSCLC | PC-3 prostate | A498 renal | CCRF-CEM leukemia | SN12C renal | ACHN renal | KM12 colon | NCI/ADR-RES ovarian | K-562 leukemia | SW-620 colon | NCI-H23 lung | SK-MEL-2 melanoma | MOLT-4 leukemia | SF-539 CNS | NCI-H226 lung | LOX IMVI melanoma | UACC-257 melanoma

Nc1ncnc2c1ncn2[C@@H]1C[C@H]1CO
> 100 µM: A549 NSCLC | PC-3 prostate | A498 renal | CCRF-CEM leukemia | SN12C renal | ACHN renal | KM12 colon | NCI/ADR-RES ovarian | K-562 leukemia | SW-620 colon | NCI-H23 lung | SK-MEL-2 melanoma | MOLT-4 leukemia | SF-539 CNS | NCI-H226 lung | LOX IMVI melanoma | UACC-257 melanoma

C=C[C@@]1(C)CC2CC[C@]3(C)C(C)=CC(=O)CC3[C@]2(C)CC1O (some centres not stated)
> 100 µM: A549 NSCLC | PC-3 prostate | A498 renal | CCRF-CEM leukemia | SN12C renal | ACHN renal | KM12 colon | NCI/ADR-RES ovarian | K-562 leukemia | SW-620 colon | NCI-H23 lung | SK-MEL-2 melanoma | MOLT-4 leukemia | SF-539 CNS | NCI-H226 lung | LOX IMVI melanoma | UACC-257 melanoma

Source: PubChem BioAssay (NCI)
